From patent publication US11040035B2, “3-oxo-2,6-diphenyl-2,3-dihydropyridazine-4-carboxamides” (BAYER PHARMA AKTIENGESELLSCHAFT, priority 2016, dated 2021)

Legend:
AHR [1] = biological target: T1, AHR (Homo sapiens, UniProt P35869); assay: In vitro assay 2: agonism in human cell line (transactivation assay); settings: Assay 2: AHR-luc Hum Agonism IC50 [M], no kynurenic acid, 20 hours, firefly luciferase
T1 sequence (P35869 11-848): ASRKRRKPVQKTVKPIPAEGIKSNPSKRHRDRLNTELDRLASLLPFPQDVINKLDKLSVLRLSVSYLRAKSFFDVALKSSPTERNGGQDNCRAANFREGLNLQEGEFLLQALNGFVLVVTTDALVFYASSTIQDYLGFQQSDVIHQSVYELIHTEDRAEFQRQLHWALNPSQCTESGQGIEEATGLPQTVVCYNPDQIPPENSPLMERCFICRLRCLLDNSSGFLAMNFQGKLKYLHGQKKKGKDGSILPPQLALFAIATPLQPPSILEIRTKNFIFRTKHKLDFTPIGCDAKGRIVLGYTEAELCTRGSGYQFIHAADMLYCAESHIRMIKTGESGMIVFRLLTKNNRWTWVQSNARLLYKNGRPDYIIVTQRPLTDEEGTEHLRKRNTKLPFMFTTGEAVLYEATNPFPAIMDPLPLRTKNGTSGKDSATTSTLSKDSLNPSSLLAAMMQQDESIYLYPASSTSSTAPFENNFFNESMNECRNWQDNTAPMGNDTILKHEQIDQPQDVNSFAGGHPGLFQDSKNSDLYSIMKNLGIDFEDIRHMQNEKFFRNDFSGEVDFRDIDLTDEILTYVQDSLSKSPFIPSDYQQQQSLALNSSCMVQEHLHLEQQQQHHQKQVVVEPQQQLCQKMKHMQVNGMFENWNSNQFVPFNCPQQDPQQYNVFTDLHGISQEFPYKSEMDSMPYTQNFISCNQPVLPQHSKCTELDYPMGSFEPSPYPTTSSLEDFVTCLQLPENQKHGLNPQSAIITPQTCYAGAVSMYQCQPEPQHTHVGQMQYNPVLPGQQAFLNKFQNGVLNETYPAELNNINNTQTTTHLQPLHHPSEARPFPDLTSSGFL
Description: Transactivation Assay in Human Cell Line (In Vitro Assays 1 and 2)
Transactivation assays were carried out in U87 glioblastoma cells (ATCC) endogenously expressing AHR. In addition the cells were stably transfected with an AHR inducible firefly luciferase reporter gene construct that carried AHR-binding sites (DRE) in its promoter and a renilla reporter gene construct with constitutively active promoter.
In Vitro Assay 2: Agonism in Human Cell Line
Cells in medium (tryptophan free RPMI, 1% FCS, 2 mM Glutamine) were grown for 20 hours in absence (negative control) or presence of increasing concentrations of test compounds (typical dilutions: 72 pmol/L, 0.25 nmol/L, 0.89 nmol/L; 3.1 nmol/L, 11 nmol/L, 38 nmol/L, 130 nmol/L, 470 nmol/L, 1.6 μmol/L, 5.7 μmol/L and 20 μmol/L in duplicates). As positive activation control cells were incubated with 300 μM kynurenic acid. Normalization was done by positive and negative controls.
Firefly luciferase activity was determined by the SteadyGlo Luciferase Assay System (Promega, #2520).

AHR [2] = biological target: T1, AHR; assay: In vitro assay 1: antagonism in human cell line (transactivation assay, kynurenic acid prestimulated); settings: Assay 1: AHR-luc Hum Antagonism IC50 [M], 150 μM kynurenic acid, 20 hours, firefly luciferase

Row | IC50 (AHR [1]) | IC50 (AHR [2]) | Structure (SMILES)
1 | > 2e-05 M | 1.81e-07 M | O=C(NCC(O)C(F)(F)F)c1cc(-c2ccc(Cl)c(F)c2)nn(-c2cccc(F)c2)c1=O (centres unmarked) [Example 282, 6-(4-chloro-3-fluorophenyl)-2-(3-fluorophenyl)-3-oxo-N-(3,3,3-trifluoro-2-hydroxypropyl)-2,3-dihydropyridazine-4-carboxamide]
2 | > 2e-05 M | 9.39e-08 M | CC(C)[C@@H](CO)NC(=O)c1cc(-c2ccc(Cl)c(F)c2)nn(-c2cccc(F)c2)c1=O [Example 285, 6-(4-Chloro-3-fluorophenyl)-2-(3-fluorophenyl)-N-[(2S)-1-hydroxy-3-methylbutan-2-yl]-3-oxo-2,3-dihydropyridazine-4-carboxamide]
3 | > 2e-05 M | 2.77e-07 M | C[C@@H](CO)NC(=O)c1cc(-c2ccc(Cl)c(F)c2)nn(-c2cccc(F)c2)c1=O [Example 286, 6-(4-Chloro-3-fluorophenyl)-2-(3-fluorophenyl)-N-[(2S)-1-hydroxypropan-2-yl]-3-oxo-2,3-dihydropyridazine-4-carboxamide]
4 | > 2e-05 M | 1.29e-07 M | O=C(NC(CO)C1CCOC1)c1cc(-c2ccc(Cl)c(F)c2)nn(-c2cccc(F)c2)c1=O (centres unmarked) [Example 287, 6-(4-Chloro-3-fluorophenyl)-2-(3-fluorophenyl)-N-[2-hydroxy-1-[-tetrahydrofuran-3-yl]ethyl]-3-oxo-2,3-dihydropyridazine-4-carboxamide]
5 | > 2e-05 M | 1.44e-07 M | CC(O)C(C)NC(=O)c1cc(-c2ccc(Cl)c(F)c2)nn(-c2cccc(F)c2)c1=O (centres unmarked) [Example 289, 6-(4-Chloro-3-fluorophenyl)-2-(3-fluorophenyl)-N-(3-hydroxybutan-2-yl)-3-oxo-2,3-dihydropyridazine-4-carboxamide]
6 | > 2e-05 M | 8.72e-08 M | COc1ccc(-c2cc(C(=O)N[C@@H](C)CO)c(=O)n(-c3cccc(F)c3)n2)cc1 [Example 297, 2-(3-Fluorophenyl)-N-[(2S)-1-hydroxypropan-2-yl]-6-(4-methoxyphenyl)-3-oxo-2,3-dihydropyridazine-4-carboxamide]
7 | > 2e-05 M | 3.18e-08 M | CC[C@@H](CO)NC(=O)c1cc(-c2ccc(OC)cc2)nn(-c2cccc(F)c2)c1=O [Example 298, 2-(3-Fluorophenyl)-N-[(2S)-1-hydroxybutan-2-yl]-6-(4-methoxyphenyl)-3-oxo-2,3-dihydropyridazine-4-carboxamide]
8 | > 2e-05 M | 2.29e-07 M | O=C(NCC(O)C(F)(F)F)c1cc(-c2ccc(Cl)c(Cl)c2)nn(-c2cccc(F)c2)c1=O (centres unmarked) [Example 302, 6-(3,4-Dichlorophenyl)-2-(3-fluorophenyl)-3-oxo-N-(3,3,3-trifluoro-2-hydroxypropyl)-2,3-dihydropyridazine-4-carboxamide]
9 | > 2e-05 M | 8.73e-07 M | COCC(O)CNC(=O)c1cc(-c2ccc(Cl)c(Cl)c2)nn(-c2cccc(F)c2)c1=O (centres unmarked) [Example 303, 6-(3,4-Dichlorophenyl)-2-(3-fluorophenyl)-N-(2-hydroxy-3-methoxypropyl)-3-oxo-2,3-dihydropyridazine-4-carboxamide]
10 | > 2e-05 M | 2.75e-07 M | CC(O)C(C)NC(=O)c1cc(-c2ccc(Cl)c(Cl)c2)nn(-c2cccc(F)c2)c1=O (centres unmarked) [Example 304, 6-(3,4-Dichlorophenyl)-2-(3-fluorophenyl)-N-(3-hydroxybutan-2-yl)-3-oxo-2,3-dihydropyridazine-4-carboxamide]
11 | > 2e-05 M | 2.22e-07 M | O=C(NC(CO)C1CCOC1)c1cc(-c2ccc(Cl)c(Cl)c2)nn(-c2cccc(F)c2)c1=O (centres unmarked) [Example 307, 6-(3,4-Dichlorophenyl)-2-(3-fluorophenyl)-N-[2-hydroxy-1-(tetrahydrofuran-3-yl)ethyl]-3-oxo-2,3-dihydropyridazine-4-carboxamide]
12 | > 2e-05 M | 9.87e-07 M | C[C@@H](CO)NC(=O)c1cc(-c2ccc(Cl)cc2)nn(-c2cc(Cl)cc(Cl)c2)c1=O [Example 309, 6-(4-Chlorophenyl)-2-(3,5-dichlorophenyl)-N-[(2S)-1-hydroxypropan-2-yl]-3-oxo-2,3-dihydropyridazine-4-carboxamide]
13 | > 2e-05 M | 4.34e-07 M | O=C(NC(CO)C1CCOC1)c1cc(-c2ccc(Cl)cc2)nn(-c2cc(Cl)cc(Cl)c2)c1=O (centres unmarked) [Example 310, 6-(4-Chlorophenyl)-2-(3,5-dichlorophenyl)-N-[2-hydroxy-1-(tetrahydrofuran-3-yl)ethyl]-3-oxo-2,3-dihydropyridazine-4-carboxamide]
14 | > 2e-05 M | 6.6e-07 M | O=C(NCC(O)C(F)(F)F)c1cc(-c2ccc(Cl)cc2)nn(-c2cc(Cl)cc(Cl)c2)c1=O (centres unmarked) [Example 311, 6-(4-Chlorophenyl)-2-(3,5-dichlorophenyl)-3-oxo-N-(3,3,3-trifluoro-2-hydroxypropyl)-2,3-dihydropyridazine-4-carboxamide]
15 | > 2e-05 M | 3.62e-07 M | O=C(NCCC1(O)CCCCC1)c1cc(-c2ccc(Cl)cc2)nn(-c2cccc(F)c2)c1=O [Example 320, 6-(4-chlorophenyl)-2-(3-fluorophenyl)-N-[2-(1-hydroxycyclohexyl)ethyl]-3-oxo-2,3-dihydropyridazine-4-carboxamide]
16 | > 2e-05 M | 2.64e-07 M | CC(C)(O)CCNC(=O)c1cc(-c2ccc(Cl)cc2)nn(-c2cccc(F)c2)c1=O [Example 321, 6-(4-chlorophenyl)-2-(3-fluorophenyl)-N-(3-hydroxy-3-methylbutyl)-3-oxo-2,3-dihydropyridazine-4-carboxamide]
17 | > 2e-05 M | 9.65e-08 M | O=C(NCC1(O)CCOCC1)c1cc(-c2ccc(Cl)cc2)nn(-c2cccc(F)c2)c1=O [Example 325, 6-(4-chlorophenyl)-2-(3-fluorophenyl)-N-[(4-hydroxytetrahydro-2H-pyran-4-yl)methyl]-3-oxo-2,3-dihydropyridazine-4-carboxamide]
18 | > 2e-05 M | 6.47e-08 M | O=C(NCC1(O)CCCC1)c1cc(-c2ccc(Cl)cc2)nn(-c2cccc(F)c2)c1=O [Example 326, 6-(4-chlorophenyl)-2-(3-fluorophenyl)-N-[(1-hydroxycyclopentyl)methyl]-3-oxo-2,3-dihydropyridazine-4-carboxamide]
19 | > 2e-05 M | 4.58e-08 M | CC(NC(=O)c1cc(-c2ccc(Cl)cc2)nn(-c2cccc(F)c2)c1=O)C(O)CO (centres unmarked) [Example 337, 6-(4-chlorophenyl)-N-(3,4-dihydroxybutan-2-yl)-2-(3-fluorophenyl)-3-oxo-2,3-dihydropyridazine-4-carboxamide]
20 | > 2e-05 M | 2.31e-07 M | N#Cc1cccc(-n2nc(-c3ccc(Cl)cc3)cc(C(=O)NCC(O)C(F)(F)F)c2=O)c1 (centres unmarked) [Example 362, 6-(4-chlorophenyl)-2-(3-cyanophenyl)-3-oxo-N-(3,3,3-trifluoro-2-hydroxypropyl)-2,3-dihydropyridazine-4-carboxamide]
21 | > 2e-05 M | 9.7e-07 M | Cc1cccc(-n2nc(-c3ccc(Cl)cc3)cc(C(=O)NCC(O)C(F)(F)F)c2=O)c1 (centres unmarked) [Example 366, 6-(4-chlorophenyl)-2-(3-methylphenyl)-3-oxo-N-(3,3,3-trifluoro-2-hydroxypropyl)-2,3-dihydropyridazine-4-carboxamide]
22 | > 2e-05 M | 9.24e-07 M | C[C@@H](CO)NC(=O)c1cc(-c2ccc(Cl)cc2)nn(-c2cccc(C(F)F)c2)c1=O [Example 370, 6-(4-chlorophenyl)-2-[3-(difluoromethyl)phenyl]-N-[(2S)-1-hydroxypropan-2-yl]-3-oxo-2,3-dihydropyridazine-4-carboxamide]
23 | > 2e-05 M | 2.21e-07 M | O=C(NC[C@H]1C[C@H](O)C1)c1cc(-c2ccc(Cl)cc2)nn(-c2cccc(F)c2)c1=O [Example 372, 6-(4-chlorophenyl)-2-(3-fluorophenyl)-N-[(trans-3-hydroxycyclobutyl)-methyl]-3-oxo-2,3-dihydropyridazine-4-carboxamide]
24 | > 2e-05 M | 1.69e-08 M | CN(C)c1ccc(-c2cc(C(=O)N[C@H](CO)C(F)(F)F)c(=O)n(-c3cccc(F)c3)n2)cc1Cl [Example 373, 6-[3-chloro-4-(dimethylamino)phenyl]-2-(3-fluorophenyl)-3-oxo-N-[(2R)-1,1,1-trifluoro-3-hydroxypropan-2-yl]-2,3-dihydropyridazine-4-carboxamide]
25 | > 2e-05 M | 1.36e-07 M | C[C@@H](CO)NC(=O)c1cc(-c2ccc(N(C)C)c(Cl)c2)nn(-c2cccc(F)c2)c1=O [Example 377, 6-[3-chloro-4-(dimethylamino)phenyl]-2-(3-fluorophenyl)-N-[(2S)-1-hydroxypropan-2-yl]-3-oxo-2,3-dihydropyridazine-4-carboxamide]
